Reference: PubChem BioAssay (NCI)
“And” between values parts separate entries of the source, which are not always exact repeats. Identical values can stand only once.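 Interpolation was linear, between the two tested concentrations surrounding the appropriate level; five concentrations were tested over 48 hours in 96-well plates. GI50 marks 50% less growth. TGI marks complete inhibition of growth.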

Columns and labels:
Assay in all cases: inhibition of tumour cell growth, NCI panel, 48 h
[1] = tested on: 786-0 renal
[2] = tested on: A549 NSCLC
[3] = tested on: ACHN renal
[4] = tested on: BT-549 breast
[5] = tested on: CAKI-1 renal
[6] = tested on: CCRF-CEM leukemia
[7] = tested on: COLO 205 colon
[8] = tested on: DU-145 prostate
[9] = tested on: EKVX NSCLC
[10] = tested on: HCC-2998 colon
[11] = tested on: HCT-116 colon
[12] = tested on: HCT-15 colon
[13] = tested on: HL-60(TB) leukemia
[14] = tested on: HOP-62 NSCLC
[15] = tested on: HT29 colon
[16] = tested on: K-562 leukemia
[17] = tested on: KM12 colon
[18] = tested on: LOX IMVI melanoma
[19] = tested on: M14 melanoma
[20] = tested on: MALME-3M melanoma
[21] = tested on: MCF7 breast
[22] = tested on: MDA-MB-231 breast
[23] = tested on: MDA-MB-435
[24] = tested on: MOLT-4 leukemia
[25] = tested on: NCI-H23 lung
[26] = tested on: NCI-H460 lung
[27] = tested on: NCI/ADR-RES ovarian
[28] = tested on: OVCAR-3 ovarian
[29] = tested on: OVCAR-4 ovarian
[30] = tested on: OVCAR-5 ovarian
[31] = tested on: OVCAR-8 ovarian
[32] = tested on: PC-3 prostate
[33] = tested on: RPMI-8226 leukemia
[34] = tested on: RXF 393 renal
[35] = tested on: SF-268 CNS
[36] = tested on: SF-295 CNS
[37] = tested on: SK-MEL-2 melanoma
[38] = tested on: SK-MEL-28 melanoma
[39] = tested on: SK-MEL-5 melanoma
[40] = tested on: SN12C renal
[41] = tested on: SNB-19 CNS
[42] = tested on: SNB-75 CNS
[43] = tested on: SR leukemia
[44] = tested on: TK-10 renal
[45] = tested on: U251 CNS
[46] = tested on: UACC-257 melanoma
[47] = tested on: UO-31 renal
[48] = tested on: A498 renal
[49] = tested on: HOP-92 NSCLC
[50] = tested on: IGROV1 ovarian
[51] = tested on: NCI-H226 lung
[52] = tested on: HS 578T breast
[53] = tested on: SK-OV-3 ovarian
[54] = tested on: SW-620 colon

`O=c1[nH]nc(NCCc2ccccc2)c2nnn(Cc3ccccc3)c12` gave a TGI [1] of over 100 µM, a TGI [2] of over 100 µM and a TGI [3] of over 100 µM. It also gave a TGI [4] of over 100 µM, a TGI [5] of over 100 µM and a TGI [6] of over 100 µM. For the same molecule, the TGI [7] was over 100 µM, the TGI [8] was over 100 µM and the TGI [9] was over 100 µM. It also gave a TGI [10] of over 100 µM, a TGI [11] of over 100 µM and a TGI [12] of over 100 µM. It also gave a TGI [13] of over 100 µM, a TGI [14] of over 100 µM and a TGI [15] of over 100 µM. For the same molecule, the TGI [16] was over 100 µM, the TGI [17] was over 100 µM and the TGI [18] was over 100 µM. For the same molecule, the TGI [19] was over 100 µM, the TGI [20] was over 100 µM and the TGI [21] was over 100 µM. It also gave a TGI [22] of over 100 µM, a TGI [23] of over 100 µM and a TGI [24] of over 100 µM. It also gave a TGI [25] of over 100 µM, a TGI [26] of over 100 µM and a TGI [27] of over 100 µM. The TGI [28] was over 100 µM, the TGI [29] was over 100 µM and the TGI [30] was over 100 µM. The TGI [31] was over 100 µM, the TGI [32] was over 100 µM and the TGI [33] was over 100 µM. It also gave a TGI [34] of over 100 µM, a TGI [35] of over 100 µM and a TGI [36] of over 100 µM. It also gave a TGI [37] of over 100 µM, a TGI [38] of over 100 µM and a TGI [39] of over 100 µM. The TGI [40] was over 100 µM, the TGI [41] was over 100 µM and the TGI [42] was over 100 µM. It also gave a TGI [43] of over 100 µM, a TGI [44] of over 100 µM and a TGI [45] of over 100 µM. For the same molecule, the TGI [46] was over 100 µM and the TGI [47] was over 100 µM.
Work on `C/C=C/C[C@@H](C)C(=O)C1C(=O)N[C@@H](C(C)C)C(=O)N(C)CC(=O)N(C)[C@@H](CC(C)C)C(=O)N[C@@H](C(C)C)C(=O)N(C)[C@@H](CC(C)C)C(=O)N[C@@H](C)C(=O)N[C@@H](C)C(=O)N(C)[C@@H](CC(C)C)C(=O)N(C)[C@@H](CC(C)C)C(=O)N(C)[C@@H](C(C)C)C(=O)N1C` (stereo partly specified) yielded a GI50 [48] of 50.4 µM, a TGI [48] of 71.5 µM and a TGI [49] of over 20.5 µM. It also gave a GI50 [50] of 20.8 µM, a TGI [50] of 65.6 µM and a GI50 [20] of 75.8 µM. The GI50 [51] was 45.3 µM, the TGI [51] was 18.4 µM and 83.2 µM and the GI50 [25] was 47 µM. The TGI [25] was over 20.5 µM, the GI50 [37] was 40.8 µM and the TGI [37] was 76.3 µM. The GI50 [46] was 45.5 µM and the TGI [46] was > 20.5 µM and 67 µM.
With `C/C(=C\C(=N\N=C(N)N)c1ccc(Cl)cc1)c1ccc(Cl)cc1` the GI50 [2] was 0.424 µM, the TGI [2] was 1.56 µM and the GI50 [3] was 0.0424 µM. It also gave a TGI [3] of 1.51 µM, a GI50 [6] of 0.112 µM and a TGI [6] of 1.94 µM. The GI50 [7] was 0.0198 µM, the TGI [7] was 0.0343 µM and the GI50 [8] was 0.146 µM. It also gave a TGI [8] of 1.5 µM, a GI50 [11] of 0.251 µM and a TGI [11] of 0.712 µM. The GI50 [13] was 2.03 µM, the TGI [13] was 3.78 µM and the GI50 [14] was 0.0454 µM. The TGI [14] was 1.62 µM, the GI50 [49] was 0.918 µM and the TGI [49] was 2.31 µM. It also gave a GI50 [52] of 2.08 µM, a TGI [52] of 4.55 µM and a GI50 [17] of 1.35 µM. For the same molecule, the TGI [17] was 2.69 µM, the GI50 [24] was 0.276 µM and the TGI [24] was 0.95 µM. It also gave a GI50 [51] of 2.17 µM, a TGI [51] of 4.75 µM and a GI50 [26] of 1.3 µM. The TGI [26] was 2.66 µM, the GI50 [28] was 1.72 µM and the TGI [28] was 3.21 µM. For the same molecule, the GI50 [31] was 1.18 µM, the TGI [31] was 2.9 µM and the GI50 [32] was 1.29 µM. The TGI [32] was 2.69 µM, the GI50 [33] was 2.19 µM and the TGI [33] was 5.14 µM. It also gave a GI50 [34] of 1.71 µM, a TGI [34] of 3.1 µM and a GI50 [35] of 1.37 µM. It also gave a TGI [35] of 3.06 µM, a GI50 [53] of 1.69 µM and a TGI [53] of 3.08 µM. The GI50 [42] was 1.48 µM, the TGI [42] was 2.91 µM and the GI50 [54] was 0.47 µM. The TGI [54] was 1.73 µM, the GI50 [45] was 0.924 µM and the TGI [45] was 2.14 µM. It also gave a GI50 [47] of 1.44 µM and a TGI [47] of 2.85 µM.
